Test results as given in patent publication US8962664B2, “Selective glycosidase inhibitors and uses thereof” (Simon Fraser University, priority 2006, dated 2015).

Experiments:
O-GlcNAcase = O-GlcNAcase (Homo sapiens (Human), UniProt O60502); experiment: Assay for determination of KI values for inhibition of O-GlcNAcase activity; format: biochemical; details: pNP-GlcNAc 0.5 mM, PBS buffer pH 7.4, 37° C., Dixon plots
Protocol: Experimental Procedure for Kinetic Analyses: Enzymatic reactions were carried out in PBS buffer (pH 7.4) using pNP-GlcNAc as a substrate (0.5 mM) and monitored continuously at 37° C. at 400 nm using a Cary 3E UV-VIS spectrophotometer equipped with a Peltier temperature controller. Reactions were pre-heated in a 500 μL quartz cuvette for approximately 5 minutes followed by addition of 10 μL enzyme via syringe (final enzyme concentration 0.002 mg/mL). Reaction velocities were determined by linear regression of the linear region of the reaction progress curve between the first and third minutes. An inhibitor concentration range of ⅕ to 5 times K1 was used in each case.
For example, the K1 values for inhibition of O-GlcNAcase shown in Table 4 were obtained for compounds 2, 4, and 6. All K1 values were determined using linear regression of a Dixon plots.

[1] = Stability on storage neat; format: physicochemical; details: stored neat at 0° C. (7 d)
Protocol: The azide obtained as described above (200 mg, 0.81 mmol) was dissolved in 3:1 THF:H2O (5 mL) and triphenylphosphine (310 mg, 1.2 mmol) was added. The solution was then stirred overnight at room temperature. Concentration of the mixture followed by flash chromatography of the resultant residue on silica gel (MeOH:EtOAc 2:3) gave 130 mg (75% yield) of (3aR,5R,6S,7R,7aR)-5-(aminomethyl)-2-propyl-5,6,7,7a-tetrahydro-3aH-pyrano[3,2-d]thiazole-6,7-diol (51) as a colourless oil. […] (7 d). ^1H NMR (500 MHz, methanol-d4): δ 0.97 (t, 3H, J=7.4 Hz), 1.63-1.67 (m, 2H), 2.43-2.49 (m, 2H), 3.39 (ddd, 1H, J=2.5, 4.1, 9.0 Hz), 3.51 (dd, 1H, J=4.1, 9.5 Hz), 3.64 (dd, 1H, J=2.5, 12.5 Hz), 3.75 (dd, 1H, J=6.1, 12.5 Hz), 4.04 (dd, 1H, J=4.4, 4.5 Hz), 4.28 (m, 1H), 6.35 (d, 1H, J=7.0 Hz).

Sequence of O-GlcNAcase (O60502 whole entry): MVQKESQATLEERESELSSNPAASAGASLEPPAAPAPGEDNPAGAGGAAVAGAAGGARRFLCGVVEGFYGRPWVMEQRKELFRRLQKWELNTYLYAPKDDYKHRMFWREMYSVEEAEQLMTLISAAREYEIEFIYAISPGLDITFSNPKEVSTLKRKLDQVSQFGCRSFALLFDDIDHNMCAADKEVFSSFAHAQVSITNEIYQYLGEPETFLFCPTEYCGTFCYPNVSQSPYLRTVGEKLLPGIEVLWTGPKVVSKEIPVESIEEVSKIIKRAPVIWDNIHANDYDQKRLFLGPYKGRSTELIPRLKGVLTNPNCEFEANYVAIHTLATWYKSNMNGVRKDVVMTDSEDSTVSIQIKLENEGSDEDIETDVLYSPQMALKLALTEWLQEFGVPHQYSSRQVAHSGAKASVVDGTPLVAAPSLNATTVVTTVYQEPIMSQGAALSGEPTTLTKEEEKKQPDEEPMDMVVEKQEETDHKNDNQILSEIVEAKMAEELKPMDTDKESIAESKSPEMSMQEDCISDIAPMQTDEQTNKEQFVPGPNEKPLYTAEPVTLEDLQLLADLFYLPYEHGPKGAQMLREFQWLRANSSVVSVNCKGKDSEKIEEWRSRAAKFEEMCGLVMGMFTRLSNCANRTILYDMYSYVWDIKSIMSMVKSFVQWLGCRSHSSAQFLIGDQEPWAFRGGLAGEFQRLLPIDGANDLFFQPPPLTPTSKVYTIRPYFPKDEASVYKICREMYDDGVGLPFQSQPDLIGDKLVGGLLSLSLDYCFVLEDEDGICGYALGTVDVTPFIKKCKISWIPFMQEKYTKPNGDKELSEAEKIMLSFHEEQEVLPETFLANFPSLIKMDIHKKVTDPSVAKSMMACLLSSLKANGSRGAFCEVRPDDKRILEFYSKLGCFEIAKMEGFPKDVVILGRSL

OC[C@H]1O[C@@H]2SC(CF)=N[C@@H]2[C@@H](O)[C@@H]1O [Compound 2, (3aR,5R,6S,7R,7aR)-2-(fluoromethyl)-5-(hydroxymethyl)-5,6,7,7a-tetrahydro-3aH-pyrano[3,2-d]thiazole-6,7-diol]
Ki (O-GlcNAcase): 10 µM

OC[C@H]1O[C@@H]2SC(C(F)F)=N[C@@H]2[C@@H](O)[C@@H]1O [Compound 4, (3aR,5R,6S,7R,7aR)-2-(difluoromethyl)-5-(hydroxymethyl)-5,6,7,7a-tetrahydro-3aH-pyrano[3,2-d]thiazole-6,7-diol]
Ki (O-GlcNAcase): 7.7 µM

OC[C@H]1O[C@@H]2SC(C(F)(F)F)=N[C@@H]2[C@@H](O)[C@@H]1O [Compound 6, (3aR,5R,6S,7R,7aR)-5-(hydroxymethyl)-2-(trifluoromethyl)-5,6,7,7a-tetrahydro-3aH-pyrano[3,2-d]thiazole-6,7-diol]
Ki (O-GlcNAcase): 5.6 µM

CCCC1=N[C@@H]2[C@@H](O)[C@H](O)[C@@H](CN)O[C@@H]2S1 [Compound 51, (3aR,5R,6S,7R,7aR)-5-(aminomethyl)-2-propyl-5,6,7,7a-tetrahydro-3aH-pyrano[3,2-d]thiazole-6,7-diol]
stability on storage [1]: decompose slowly with time
